Measured values from US20220213060A1, “Crystal Form of Quinazolinone Compound and Preparation Method Therefor” (Luoxin Healthcare Science and Technology Development …, priority 2019, published 2022).
Where two headings read alike, the source gives them in different places.

Experiments:
[1] = Sprague Dawley (SD) rat absorption test (pharmacokinetics); format: in vivo, SD rats; settings: for C0 / Tmax / bioavailability / Tmax at 7 days / Vd / AUC(0-t) / clearance / half-life / Cmax / half-life at 7 days: Sprague-Dawley, rat, plasma; for AUC0-last / t1/2: listed as crystal form A of the compound represented by formula (I); for Vd: read-out: Vdss
Method: SD rats were given the crystal form A of the compound represented by formula (I) by single or multiple oral gavage and single intravenous injection respectively, with 6 rats in each group, half male and half female. According to the results of pharmacodynamic and toxicological experiments, the single oral gavage doses were 3, 10 and 30 mg/kg respectively; the multiple doses were 10 mg/kg, once a day for 7 consecutive days; the single intravenous dose was 1 mg/kg. According to the drug plasma concentration-time curve, the pharmacokinetic parameters were calculated. In this experiment, SD rats were provided by Beijing Vital River Experimental Animal Technology Co., Ltd., and were divided into 4 groups (3/sex/group) according to their similar weight. The vehicle for the intravenous group was 5% HP-betaCD/5% Solutol aqueous solution (pH=8); the vehicle for the oral group was 0.5% MC/0.2% Tw80 aqueous solution. Plasma samples were collected by jugular vein puncture in rats.

[2] = tested on: human breast cancer T47D (PIK3CA H1047R mutation); test: In vivo pharmacodynamic study, T47D nude mouse subcutaneous xenograft tumor model; set-up: species or system BALB/c nude mice
Method: The phenotype of human T47D breast cancer cells is HR+/HER2−, and it carries PIK3CA H1047R mutation. This experiment evaluated the efficacy of the crystal form A of the compound represented by formula (I) in a human breast cancer xenograft tumor model.
Cell culture: Human breast cancer T47D cells were cultured in vitro in a single layer, the culture condition was RPMI-1640 medium with 0.2 U/mL bovine insulin and 10% fetal bovine serum, and the cells were incubated in 5% CO2 at 37° C. Digestion and passage treatment with trypsin-EDTA was carried out twice a week. When the cell saturation was 80%-90% and the number reached the requirement, the cells were collected, counted and inoculated.
Animals: BALB/c nude mice, female, 6-8 weeks old, weighing 18-20 g. A total of 75 animals were required, and provided by Shanghai Bikai experimental animal Co., Ltd or other qualified suppliers.
Tumor inoculation: Estrogen tablets (0.18 mg/tablet) were subcutaneously inoculated on the left back of each mouse. Three days later, 0.2 mL (10×10^6 cells) of T47D cells (with matrigel in a volume ratio of 1:1) were subcutaneously inoculated on the right back of each mouse, group administration was started when the average tumor volume reached 150 mm^3-200 mm^3.
Tumor-bearing mice in each administration group had good tolerance to the tested compounds.

[3] = female SD rats, oral, 3 mg/kg, single
[4] = male SD rats, oral, 3 mg/kg, single
[5] = female SD rats, vein, 1 mg/kg, single
[6] = female, iv, 1 mg/kg, female SD rats, vein, single
[7] = female, po, 3 mg/kg, female SD rats, single
[8] = female, po, 10 mg/kg, female SD rats, oral, 10 mg/kg once a day, Day 7
[9] = female, po, 10 mg/kg, female SD rats, oral, 10 mg/kg, Day 1
[10] = female, po, 30 mg/kg, female SD rats, single
[11] = male SD rats, vein, 1 mg/kg, single
[12] = male, iv, 1 mg/kg, male SD rats, vein, single
[13] = male, po, 3 mg/kg, male SD rats, single
[14] = male, po, 10 mg/kg, male SD rats, oral, 10 mg/kg once a day, Day 7
[15] = male, po, 10 mg/kg, male SD rats, oral, 10 mg/kg, Day 1
[16] = male, po, 30 mg/kg, male SD rats, single
[17] = 10 mg/kg, oral once a day for 42 days
[18] = 10 mg/kg, oral once a day for 42 days, listed as crystal form A of the compound represented by formula (I)
[19] = 20 mg/kg, oral once a day for 42 days
[20] = 20 mg/kg, oral once a day for 42 days, listed as crystal form A of the compound represented by formula (I)
[21] = 40 mg/kg, oral once a day for 42 days
[22] = 40 mg/kg, oral once a day for 42 days, listed as crystal form A of the compound represented by formula (I)

C0 ([1]; iv, female SD rats, vein, 1 mg/kg, single): 14.2 µM | C0 ([1]; iv, male SD rats, vein, 1 mg/kg, single): 12.7 µM | Tmax [1, 3]: 30 min | bioavailability [1, 3]: 53.1% | Tmax at 7 days ([1]; female SD rats, oral, 10 mg/kg once a day, Day 7): 30 min | Tmax ([1]; female SD rats, oral, 10 mg/kg, Day 1): 40 ± 17.3 min | Tmax ([1]; female SD rats, oral, 30 mg/kg, single): 30 min | Tmax [1, 4]: 25 ± 8.64 min | bioavailability [1, 4]: 34.7% | Tmax at 7 days ([1]; male SD rats, oral, 10 mg/kg once a day, Day 7): 40 min | Tmax ([1]; male SD rats, oral, 10 mg/kg, Day 1): 30 min | Tmax ([1]; male SD rats, oral, 30 mg/kg, single): 40 ± 17.3 min | AUC0-last [1, 5]: 17.4 µM·h | t1/2 [1, 5]: 3.26 h | Vd ([1]; female, iv, 1 mg/kg, female SD rats, vein, 1 mg/kg, single): 0.257 ± 0.0227 L/kg | AUC(0-t) [1, 6]: 9.89 ± 1.41 µM·h | clearance [1, 6]: 3.12 ± 0.431 mL/min/kg | half-life [1, 6]: 97.8 ± 48.5 min | AUC(0-t) [1, 7]: 27.7 ± 8.72 µM·h | Cmax [1, 7]: 6.39 ± 1.71 µM | half-life [1, 7]: 163 min | AUC(0-t) [1, 8]: 86 ± 19.9 µM·h | Cmax [1, 8]: 20.5 ± 4.6 µM | half-life at 7 days [1, 8]: 224 min | AUC(0-t) [1, 9]: 60.9 ± 10.9 µM·h | Cmax [1, 9]: 12.1 ± 3.69 µM | half-life [1, 9]: 175 min | AUC(0-t) [1, 10]: 177 ± 48 µM·h | Cmax [1, 10]: 39.1 µM | half-life [1, 10]: 163 min | AUC0-last [1, 11]: 9.89 µM·h | t1/2 [1, 11]: 1.63 h | Vd ([1]; male, iv, 1 mg/kg, male SD rats, vein, 1 mg/kg, single): 0.265 ± 0.05 L/kg | AUC(0-t) [1, 12]: 17.4 ± 4.79 µM·h | clearance [1, 12]: 1.79 ± 0.457 mL/min/kg | half-life [1, 12]: 196 ± 67.8 min | AUC(0-t) [1, 13]: 10.3 ± 4.6 µM·h | Cmax [1, 13]: 4.77 ± 1.01 µM | half-life [1, 13]: 136 min | AUC(0-t) [1, 14]: 48.5 ± 4.64 µM·h | Cmax [1, 14]: 13.9 ± 1.61 µM | half-life at 7 days [1, 14]: 237 min | AUC(0-t) [1, 15]: 23.7 ± 0.721 µM·h | Cmax [1, 15]: 6.8 ± 0.583 µM | half-life [1, 15]: 149 min | AUC(0-t) [1, 16]: 45.3 ± 10.9 µM·h | Cmax [1, 16]: 14.5 ± 4.73 µM | half-life [1, 16]: 157 min
SMILES: CNC(=O)[C@H](C)Cn1cnc2ccc(-c3cnc(OC)c(NS(=O)(=O)c4ccc(F)cc4F)c3)cc2c1=O
Anti-tumor effect (in words) ([2]; 10 mg/kg group): strong anti-tumor effect | T/C % [2, 17]: 50.40% | TGI % [2, 17]: 67.58% | T/C % [2, 18]: 50.40% | TGI % [2, 18]: 67.58% | Anti-tumor effect (in words) ([2]; 20 mg/kg group): strong anti-tumor effect | T/C % [2, 19]: 44.70% | TGI % [2, 19]: 72.56% | T/C % [2, 20]: 44.70% | TGI % [2, 20]: 72.56% | Anti-tumor effect (in words) ([2]; 40 mg/kg group): significant anti-tumor effects | T/C % [2, 21]: 37.91% | TGI % [2, 21]: 84.71% | T/C % [2, 22]: 37.91% | TGI % [2, 22]: 84.71% | Dose to play the effect ([2]; oral once a day for 42 days): 10 mg/kg
